This test addresses T1, ATM (Homo sapiens, UniProt Q13315).
T1 construct: detecting phosphorylation of Chk2 in a human non-small cell lung cancer cell line NCI-H460 (ATCC company); host or cells: NCI-H460 human non-small cell lung cancer cells
In words: ATM inhibition test (phosphorylation of Chk2 generated by ionizing radiation, AlphaScreen SureFire). The test is classed as cell-based. Conditions: phosphorylated Chk2 in NCI-H460 cells, ionizing radiation 8Gy, 1 hour after test compound treatment; read-out: ATM inhibitory activity. In outline:
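NCI-H460 cells, compound 1 h pre-treatment, 8Gy IR, further 1 h at 37° C in 5% CO2. Read-out: phospho-Chk2 via AlphaScreen SureFire. % inhibition relative to IR-induced signal window (irradiated vs non-irradiated drug-free wells).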
(Bead proximity is the source of the signal in Alpha formats.)
T1 sequence (Q13315 whole entry): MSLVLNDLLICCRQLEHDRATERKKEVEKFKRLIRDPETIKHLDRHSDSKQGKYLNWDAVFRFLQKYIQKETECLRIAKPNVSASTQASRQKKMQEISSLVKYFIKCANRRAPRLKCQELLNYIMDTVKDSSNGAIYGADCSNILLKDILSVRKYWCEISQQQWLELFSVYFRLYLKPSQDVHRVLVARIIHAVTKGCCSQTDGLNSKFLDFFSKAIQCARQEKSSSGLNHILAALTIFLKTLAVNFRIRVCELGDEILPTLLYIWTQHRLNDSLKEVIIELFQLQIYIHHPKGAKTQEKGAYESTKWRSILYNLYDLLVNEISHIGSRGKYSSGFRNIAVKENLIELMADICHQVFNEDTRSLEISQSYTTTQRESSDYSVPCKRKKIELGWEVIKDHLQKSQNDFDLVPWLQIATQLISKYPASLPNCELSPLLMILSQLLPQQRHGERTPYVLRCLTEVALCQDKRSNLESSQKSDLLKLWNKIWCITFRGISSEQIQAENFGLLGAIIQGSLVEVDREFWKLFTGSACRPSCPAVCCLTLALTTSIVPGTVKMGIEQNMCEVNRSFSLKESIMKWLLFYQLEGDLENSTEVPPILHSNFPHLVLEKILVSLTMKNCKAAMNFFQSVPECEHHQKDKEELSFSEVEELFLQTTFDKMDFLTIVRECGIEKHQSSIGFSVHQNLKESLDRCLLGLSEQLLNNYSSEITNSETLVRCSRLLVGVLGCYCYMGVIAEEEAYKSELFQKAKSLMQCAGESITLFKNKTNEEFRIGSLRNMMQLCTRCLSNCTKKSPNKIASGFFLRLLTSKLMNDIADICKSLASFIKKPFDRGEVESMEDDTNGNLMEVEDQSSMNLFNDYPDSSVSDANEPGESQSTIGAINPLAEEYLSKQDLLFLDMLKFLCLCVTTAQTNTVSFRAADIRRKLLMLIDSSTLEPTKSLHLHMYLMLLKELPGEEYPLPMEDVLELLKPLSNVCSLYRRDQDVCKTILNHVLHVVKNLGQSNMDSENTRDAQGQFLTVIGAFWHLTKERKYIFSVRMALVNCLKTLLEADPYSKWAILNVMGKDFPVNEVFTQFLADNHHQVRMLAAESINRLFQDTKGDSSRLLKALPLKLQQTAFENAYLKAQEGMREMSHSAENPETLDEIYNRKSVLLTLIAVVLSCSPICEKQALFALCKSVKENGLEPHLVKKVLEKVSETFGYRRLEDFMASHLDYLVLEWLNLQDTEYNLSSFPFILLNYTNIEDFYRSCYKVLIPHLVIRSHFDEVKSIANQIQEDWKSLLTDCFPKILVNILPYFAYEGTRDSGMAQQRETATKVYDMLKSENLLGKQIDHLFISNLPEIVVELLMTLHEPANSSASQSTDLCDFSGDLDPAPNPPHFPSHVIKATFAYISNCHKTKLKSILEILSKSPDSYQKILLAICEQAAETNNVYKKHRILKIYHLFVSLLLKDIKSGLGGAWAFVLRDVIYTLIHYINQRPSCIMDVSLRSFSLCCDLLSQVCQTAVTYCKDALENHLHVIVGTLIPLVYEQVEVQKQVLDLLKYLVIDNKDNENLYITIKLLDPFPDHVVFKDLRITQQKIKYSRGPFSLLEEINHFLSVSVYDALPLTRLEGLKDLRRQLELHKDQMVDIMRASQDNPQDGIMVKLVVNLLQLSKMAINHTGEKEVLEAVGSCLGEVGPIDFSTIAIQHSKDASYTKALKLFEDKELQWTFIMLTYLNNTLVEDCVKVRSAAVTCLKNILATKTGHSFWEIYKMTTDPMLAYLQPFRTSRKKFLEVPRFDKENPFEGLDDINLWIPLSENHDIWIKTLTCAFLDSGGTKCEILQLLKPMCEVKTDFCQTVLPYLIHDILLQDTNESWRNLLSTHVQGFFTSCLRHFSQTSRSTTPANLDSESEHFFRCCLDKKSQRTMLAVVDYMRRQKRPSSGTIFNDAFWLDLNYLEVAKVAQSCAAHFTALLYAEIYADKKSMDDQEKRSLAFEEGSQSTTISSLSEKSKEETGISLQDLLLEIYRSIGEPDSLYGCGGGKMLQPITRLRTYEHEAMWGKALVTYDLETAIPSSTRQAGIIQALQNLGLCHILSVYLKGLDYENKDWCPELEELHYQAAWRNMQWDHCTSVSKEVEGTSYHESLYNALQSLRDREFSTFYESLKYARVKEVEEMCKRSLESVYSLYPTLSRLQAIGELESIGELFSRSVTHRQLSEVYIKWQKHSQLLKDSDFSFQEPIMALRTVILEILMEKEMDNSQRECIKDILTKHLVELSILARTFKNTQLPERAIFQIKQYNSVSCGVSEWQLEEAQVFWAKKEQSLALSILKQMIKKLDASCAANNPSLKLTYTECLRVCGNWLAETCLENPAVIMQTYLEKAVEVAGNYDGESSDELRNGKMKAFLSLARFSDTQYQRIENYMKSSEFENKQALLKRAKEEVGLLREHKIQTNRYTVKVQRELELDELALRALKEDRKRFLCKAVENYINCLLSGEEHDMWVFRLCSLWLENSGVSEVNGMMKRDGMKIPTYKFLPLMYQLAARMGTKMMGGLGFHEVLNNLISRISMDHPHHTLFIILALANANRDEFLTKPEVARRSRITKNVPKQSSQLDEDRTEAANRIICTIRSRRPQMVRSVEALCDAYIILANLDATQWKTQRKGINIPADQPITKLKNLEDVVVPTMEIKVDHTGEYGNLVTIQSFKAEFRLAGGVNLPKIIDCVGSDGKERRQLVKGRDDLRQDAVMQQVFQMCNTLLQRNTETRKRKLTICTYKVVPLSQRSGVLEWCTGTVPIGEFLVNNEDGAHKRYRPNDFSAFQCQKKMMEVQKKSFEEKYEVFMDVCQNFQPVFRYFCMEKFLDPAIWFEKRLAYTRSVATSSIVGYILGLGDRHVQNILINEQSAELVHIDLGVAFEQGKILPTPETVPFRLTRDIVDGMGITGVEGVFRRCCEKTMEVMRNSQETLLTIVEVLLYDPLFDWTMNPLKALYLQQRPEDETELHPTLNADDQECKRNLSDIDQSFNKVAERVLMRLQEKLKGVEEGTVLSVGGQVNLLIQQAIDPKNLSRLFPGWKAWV
Regarding `CC(Nc1ccc2c(c1)Sc1cccc(-c3cc(N4CCOCC4)cc(=O)[nH]3)c1S2)C1CC1` (stereo not drawn) [Example 1-12-43, 6-(7-((1-Cyclopropylethyl)araino)thianthren-1-yl)-4-morpholino pyridin-2(1H)-onc], the IC50 lay in the range of 500 to 2000 nM. To `Cc1cnc(C(COCCN(C)C)Nc2ccc3c(c2)Sc2cccc(-c4cc(N5CCOCC5)cc(=O)[nH]4)c2S3)nc1` (stereo not drawn) [Example 1-12-104, 6-(7-((2-(2-(Dimethylamino)ethoxy)-1-(5-methylpyrimidin-2-yl)ethyl)amino)thianthren-1-yl)-4-morpholino pyridin-2(1H)-one] belongs 100 to 500 nM; to `CCCC(Nc1ccc2c(c1)Cc1cccc(-c3cc(N4CCOCC4)cc(=O)[nH]3)c1O2)c1cncc(OC)c1` (stereo not drawn) [Example 2-14-17, 6-(7-((1-(5-Methoxypyridin-3-yl)butyl)amino)-9H-xanthen-4-yl)-4-morpholino pyridin-2(1H)-one], 100 to 500 nM; to `CC(Nc1ccc2c(c1)Cc1cccc(-c3cc(N4CCOCC4)cc(=O)[nH]3)c1O2)c1cc(CF)ncn1` (stereo not drawn) [Example 2-14-65, 6-(7-((1-(6-(Fluoromethyl)pyrimidin-4-yl)ethyl)amino)-9H-xanthen-4-yl)-4-morpholino pyridin-2(1H)-one], 100 to 500 nM. Turning to `O=c1cc(N2CCOCC2)cc(-c2cccc3c2Sc2ccc(NC(CO)CN4CCCCC4)cc2S3)[nH]1` (stereo not drawn) [Example 1-37-4, 6-(7-((1-Hydroxy-3-(piperidin-1-yl)propan-2-yl)amino)thianthren-1-yl)-4-morpholino pyridin-2(1H)-one], the IC50 was in the range of 100 to 500 nM. The result for `Cn1c(CNc2ccc3c(c2)Cc2cccc(-c4cc(N5CCOCC5)cc(=O)[nH]4)c2O3)cccc1=O` [Example 2-2-47, 1-Methyl-6-(((5-(4-morpholino-6-oxo-1,6-dihydropyridin-2-yl)-9H-xanthen-2-yl)amino)methyl) pyridin-2(1H)-one] reads 500 to 2000 nM; that for `Nc1ccc2c(c1)Sc1cccc(-c3cc(N4CCOCC4)cc(=O)[nH]3)c1O2` [Example 4-2, 6-(8-Aminophenoxathiin-4-yl)-4-morpholinopyridin-2(1H)-one], 100 to 500 nM; that for `O=c1cc(N2CCOCC2)cc(-c2cccc3c2Oc2ccc(NCc4cnc5c(c4)OCO5)cc2C3)[nH]1` [Example 2-2-30, 6-(7-(([1,3]Dioxolo[4,5-b]pyridin-6-ylmethyl)amino)-9H-xanthen-4-yl)-4-morpholino pyridin-2(1H)-one], 100 to 500 nM.

For the molecule `COCCNCC(Nc1ccc2c(c1)Sc1cccc(-c3cc(N4CCOCC4)cc(=O)[nH]3)c1S2)c1cccc(C)n1` (stereo not drawn) [Example 1-34-2, 6-(7-((2-((2-Methoxyethyl)amino)-1-(6-methylpyridin-2-yl)ethyl)amino)thianthren-1-yl)-4-morpholino pyridin-2 (1H)-one], the IC50 lay in the range of 100 to 500 nM. As to `O=c1cc(N2CCOCC2)cc(-c2cccc3c2Oc2ccc(NC4CCN(c5ccncc5)CC4)cc2C3)[nH]1` [Example 2-2-22, 4-Morpholino-6-(7-((1-(pyridin-4-yl)piperidin-4-yl)amino)-9H-xanthen-4-yl) pyridin-2(1H)-one], the IC50 is under 100 nM. For `CN(c1ccc2c(c1)Sc1cccc(-c3cc(N4CCOCC4)cc(=O)[nH]3)c1S2)C1CCCNC1` (stereo not drawn) [Example 1-30, 6-(7-(methyl(piperidin-3-yl)amino)thianthren-1-yl)-4-morpholinopyridin-2(1H)-one], the IC50 lay in the range of 500 to 2000 nM. The result for `O=c1cc(N2CCOCC2)cc(-c2cccc3c2Oc2ccc(NCc4ccc(N5CCOCC5)nc4)cc2C3)[nH]1` [Example 2-2-6, 4-Morpholino-6-(7-(((6-morpholinopyridin-3-yl)methyl)amino)-9H-xanthen-4-yl)pyridin-2(1H)-one] reads 100 to 500 nM. For the molecule `CCN(CC)C(=O)CN1CCN(c2cccc(CNc3ccc4c(c3)Sc3cccc(-c5cc(N6CCOCC6)cc(=O)[nH]5)c3S4)n2)CC1` [Example 1-12-34, N,N-Diethyl-2-(4-(6-(((6-(4-morpholino-6-oxo-1,6-dihydro-pyridin-2-yl)thianthren-2-yl)amino)methyl)pyridin-2-yl)piperazin-1-yl) acetamide], the IC50 fell in the range of 500 to 2000 nM.

Turning to `CCC(C(=O)Nc1ccc2c(c1)Sc1cccc(-c3cc(N4CCOCC4)cc(=O)[nH]3)c1S2)N1CCOCC1` (stereo not drawn) [Example 1-6-2, 2-Morpholino-N-(6-(4-morpholino-6-oxo-1,6-dihydropyridin-2-yl)thianthren-2-yl)butanamide], the IC50 was in the range of 100 to 500 nM. Regarding `Cc1cnc(C(CCN2CCN(C)CC2)Nc2ccc3c(c2)Sc2cccc(-c4cc(N5CCOCC5)cc(=O)[nH]4)c2S3)cn1` (single isomer, unassigned) [Example 10-3-2, 6-(7-((3-(4-Methylpiperazin-1-yl)-1-(5-methylpyrazin-2-yl)propyl)amino)thianthren-1-yl)-4-rnorpholino pyridin-2 (1H)-one], the IC50 is under 100 nM.

Turning to `CC(CN1CC2(COC2)C1)Nc1ccc2c(c1)Sc1cccc(-c3cc(N4CCOCC4)cc(=O)[nH]3)c1S2` (stereo not drawn) [Example 1-43-2, 6-(7-((1-(2-Oxa-6-azaspiro [3.3]heptan-6-yl)propan-2-yl)amino)thianthren-1-yl)-4-morpholino pyridin-2(1H)-one], the IC50 lay in the range of 100 to 500 nM.

As to `O=c1cc(N2CCOCC2)cc(-c2cccc3c2Oc2ccc(NCc4ccsc4)cc2C3)[nH]1` [Example 2-14-35, 4-Morpholino-6-(7-((thiophen-3-ylmethyl)amino)-9H-xanthen-4-yl) pyridin-2(1H)-one], the IC50 fell in the range of 100 to 500 nM. To `COC1CN(CCC(Nc2ccc3c(c2)Sc2cccc(-c4cc(N5CCOCC5)cc(=O)[nH]4)c2S3)c2ccc(C)cn2)C1` (single isomer, unassigned) [Example 1-51-8, 6-(7-((3-(3-Methoxyazetidin-1-yl)-1-(5-methylpyridin-2-yl)propyl)amino)thianthren-1-yl)-4-morpholino pyridin-2 (1H)-one] belongs under 100 nM; to `COc1cccnc1CNc1ccc2c(c1)Cc1cccc(-c3cc(N4CCOCC4)cc(=O)[nH]3)c1O2` [Example 2-14-8, 6-(7-(((3-Methoxypyridin-2-yl)methyl)amino)-9H-xanthen-4-yl)-4-morpholino pyridin-2(1H)-one], 100 to 500 nM.

For `O=c1cc(N2CCOCC2)cc(-c2cccc3c2Sc2ccc(NC4CCN(C5CCOCC5)C4)cc2S3)[nH]1` (stereo not drawn) [Example 1-24-13, 4-Morpholino-6-(7-((1-(tetrahydro-2H-pyran-4-yl)pyrrolidin-3-yl)amino)thianthren-1-yl)pyridin-2 (1H)-one], the IC50 fell in the range of 100 to 500 nM. To `CN(C)c1nccc(CN2CCC(Nc3ccc4c(c3)Cc3cccc(-c5cc(N6CCOCC6)cc(=O)[nH]5)c3O4)CC2)n1` [Example 2-28-16, 6-(7-((1-((2-(Dimethylamino)pyrimidin-4-yl)methyl)piperidin-4-yl)amino)-9H-xanthen-4-yl)-4-morpholino pyridin-2(1H)-one] belongs 100 to 500 nM; to `Cn1cc(-c2cncc(CNc3ccc4c(c3)Sc3cccc(-c5cc(N6CCOCC6)cc(=O)[nH]5)c3O4)c2)cn1` [Example 4-4-11, 6-(8-(((5-(1-Methyl-1H-pyrazol-4-yl)pyridin-3-yl)methyl)amino)phenoxathiin-4-yl)-4-morpholino pyridin-2 (1H)-one], 100 to 500 nM; to `O=c1cc(N2CCOCC2)cc(-c2cccc3c2Oc2ccc(NCc4cncc(-n5cccn5)c4)cc2C3)[nH]1` [Example 2-2-55, 6-(7-(((5-(1H-Pyrazol-1-yl)pyridin-3-yl)methyl)amino)-9H-xanthen-4-yl)-4-morpholino pyridin-2 (1H)-one], 100 to 500 nM. To `CN1CCCC(Nc2ccc3c(c2)Cc2cccc(-c4cc(N5CCOCC5)cc(=O)[nH]4)c2O3)C1` (stereo not drawn) [Example 2-7-1, 6-(7-((1-methylpiperidin-3-yl)amino)-9H-xanthen-4-yl)-4-morpholinopyridin-2(1H)-one] belongs 500 to 2000 nM; to `COCC(CN1CCCCC1)Nc1ccc2c(c1)Sc1cccc(-c3cc(N4CCOCC4)cc(=O)[nH]3)c1S2` (stereo not drawn) [Example 1-17-2, 6-(7-((1-Methoxy-3-(piperidin-1-yl)propan-2-yl)amino)thianthren-1-yl)-4-morpholinopyridin-2(1H)-one], 100 to 500 nM; to `COc1ncc(CN2CCC(Nc3ccc4c(c3)Cc3cccc(-c5cc(N6CCOCC6)cc(=O)[nH]5)c3O4)CC2)cn1` [Example 2-28-14, 6-(7-((1-((2-Methoxypyrimidin-5-yl)methyl)piperidin-4-yl)amino)-9H-xanthen-4-yl)-4-morpholino pyridin-2(1H)-one], 100 to 500 nM.

For the molecule `CC(CN(C)C1CCCCC1)Nc1ccc2c(c1)Sc1cccc(-c3cc(N4CCOCC4)cc(=O)[nH]3)c1S2` (stereo not drawn) [Example 1-13-9, 6-(7-((1-(Cyxlohexyl(methyl)amino)propan-2-yl)amino)thianthren-1-yl)-4-morpholino pyridin-2(1H)-one], the IC50 was in the range of 100 to 500 nM. To `O=c1cc(N2CCOCC2)cc(-c2cccc3c2Oc2ccc(NC4CCN(Cc5cncc(Cl)c5)CC4)cc2C3)[nH]1` [Example 2-28-17, 6-(7-((1-((5-Chloropyridin-3-yl)methyl)piperidin-4-yl)amino)-9H-xanthen-4-yl)-4-morpholino pyridin-2(1H)-one] belongs 100 to 500 nM; to `Cc1nccc(C(C)Nc2ccc3c(c2)Sc2cccc(-c4cc(N5CCOCC5)cc(=O)[nH]4)c2S3)n1` (single isomer, unassigned) [Example 1-12-141-2, 6-(7-((1-(2-methylpyrimidin-4-yl)ethyl)amino)thianthren-1-yl)-4-morpholinopyridin-2(1H)-one], 100 to 500 nM. To `CCC(Nc1ccc2c(c1)Sc1cccc(-c3cc(N4CCOCC4)cc(=O)[nH]3)c1O2)c1cncc(OC)c1` (stereo not drawn) [Example 4-4-27, 6-(8-((1-(5-Methoxypyridin-3-yl)propyl)amino)phenoxathiin-4-yl)-4-morpholino pyridin-2(1 H)-one] belongs 100 to 500 nM.

For the origin of these results see patent US9586951B2 (FUJIFILM Corporation, priority 2013, dated 2017).
